From patent US20090227606A1, “Methods for Preventing or Treating Acute and Chronic Pain” (priority 2006, published 2009) come the findings set out here.

The structures appear in SMILES notation. “Also recorded” adds a separate entry of the source.

One experiment deals with GLAST. The experiment is described as follows: Western blot of cultured astrocytes, GLAST protein. In kind it is cell-based, rat. The procedure:
(§1) After approximately 14 days (2 days after subplating into plates, DIV 14) astrocytes had formed a confluent monolayer. […] Phase contrast microscopy was then carried out in order to assess the morphology of cells after the various treatments. Length of astrocyte processes was quantified by measuring all processes in 2-3 phase contrast images/group by an independent observer, blinded to the treatment groups using Image J v1.34s (National Institutes of Health, Bethesda, Md.).
Cells were scraped into PBS containing a protease inhibitor cocktail (1:1000, Sigma Chemical Co., St. Louis, Mo.) and then lysed by sonication in 5 one-second pulses. The samples were stored at −80° C. until use. Total protein was determined using the Lowry method (DC assay, Bio-Rad, Hercules, Calif.). Forty micrograms of protein (diluted in sample buffer and boiled) and standard protein markers were subjected to SDS/7.5% polyacrylamide gel electrophoresis and transferred to polyvinylidene difluoride (PVDF) membranes. Nonspecific binding was blocked by incubation with 5% milk/PBS-Tween at room temperature for 1 hour followed by incubation overnight at 4° C. with rabbit anti-GLT-1 (1:500) or guinea pig anti-GLAST (1:2500). The following day, blots were washed and incubated for 1 hour at room temperature with goat anti-rabbit HRP-conjugated secondary (1:3000) or goat anti-guinea pig HRP-conjugated secondary antibody (1:5000) and visualized with enhanced chemiluminescence (ECL). Images were obtained using the Typhoon Imaging System (Amersham-GE Healthcare, Piscataway, N.J.). Finally, blots were incubated for 15 minutes in stripping buffer and reprobed with a monoclonal mouse anti-β-actin antibody (1:10,000) as a loading control. Densitometric analysis was performed using ImageQuant 5.2 (Molecular Dynamics, GE Healthcare, Piscataway, N.J.).

In a further experiment the test system is GFAP. Description: GFAP expression in mouse spinal cord dorsal horn. The class given is in vivo. The following applies: dorsal horn upper laminae, day 12, 10 mg/kg i.p. daily. As for the experimental part:
With these in vivo data collected, further experiments were performed in the transgenic mice to more clearly define the effects of propentofylline treatment on GLT-1 and GLAST in the spinal cord. As discussed above, following in vivo testing, mice were transcardially perfused and tissue was fixed with paraformaldehyde. Lumbar spinal cord sections were identified and post-fixed in paraformaldehyde. After one week in sucrose to prevent freeze fracture, spinal cord segments were frozen in dry ice, mounted and prepared with cryostat sectioning. Sections were then subjected to immunohistochemical analysis. […] In order to quantitate the relative number of eGFP (marker for GLT-1) or DsRed (marker for GLAST) puncta in each spinal cord dorsal horn, images using a fluorescence microscope were taken with a Q-Fire cooled camera (397 ms exposure). […] An observer blind to the treatment groups was used to count the relative number of GLT-1 or GLAST positive puncta in the ipsilateral (injured) dorsal horn versus the contralateral (non-injured) dorsal horn. […]
As described previously with rats, mice were transcardially perfused with 0.1 M PBS (phosphate-buffered saline), pH 7.4, followed by 4%-paraformaldehyde in PBS on day 12 post-L5 spinal nerve transection. […] The sections were examined with a fluorescence microscope, and images were captured with a Q-Fire cooled camera. […]

The subject of another experiment is MCP-1 (CCL2). The experiment is described as follows: ELISA of MCP-1 release from cultured astrocytes. In kind it is cell-based, rat. The following applies: seven days. As for the experimental part:
as §1
(§2) Standard ELISA was performed for quantitative determination of MCP-1 and MIP-2 protein in cell culture supernatant. Assays were carried out according to the manufacturer's specifications (Biosource, Camarillo, Calif.) using the sandwich enzyme immunoassay procedure. Optical density at 450 nm was obtained using the MRX Revelations program (Dynex Technologies, Chantilly, Va.) and relative protein concentrations were determined by comparing samples to the standard curve generated.

The subject of another experiment is MIP-2 (CXCL2). Description: ELISA of MIP-2 release from cultured astrocytes. The class given is cell-based, rat. The following applies: seven days, LPS 1 μg/ml; propentofylline 1000 μM; db-cAMP 250 μM. The procedure:
as §1, §2

For the molecule `CCCn1cnc2c1c(=O)n(CCCCC(C)=O)c(=O)n2C` [propentofylline], the “GLAST protein level, in words” value in the experiment with GLAST (3 or 7 days, normalized to β-actin) is “dose-dependently increased levels of GLAST protein”. For the same molecule, the “increase in GLAST protein” value in the experiment with GLAST (7-day treatment, 1000 μM) is on record as 6 fold. The “injury-induced GFAP expression” value with GFAP was “suppressed injury-induced GFAP expression”. Moreover, the “LPS-induced MCP-1 (CCL2) release” value with MCP-1 (CCL2) (LPS 1 μg/ml, propentofylline 1000 μM, db-cAMP 250 μM) is recorded as “reversed by co-treatment with propentofylline; also recorded: significantly attenuated”. Moreover, in the experiment on MCP-1 (CCL2) (without LPS), the “basal MCP-1 (CCL2) release, treatment alone” value was “had no effect”. The “LPS-induced MIP-2 (CXCL2) release” value in the experiment with MIP-2 (CXCL2) was “reversed by co-treatment with propentofylline; also recorded: significantly attenuated”.
